From US8957062B2, “Substituted cyclopropyl compounds, compositions containing such compounds and methods of treatment” (Merck Sharp & Dohme Corp., priority 2011, dated 2015)
Like-named read-outs stand apart in the source and are kept apart here.

Target: T1, human GPR119 (Homo sapiens, UniProt Q8TDV5)
T1 sequence (Q8TDV5 1-308 limits assumed): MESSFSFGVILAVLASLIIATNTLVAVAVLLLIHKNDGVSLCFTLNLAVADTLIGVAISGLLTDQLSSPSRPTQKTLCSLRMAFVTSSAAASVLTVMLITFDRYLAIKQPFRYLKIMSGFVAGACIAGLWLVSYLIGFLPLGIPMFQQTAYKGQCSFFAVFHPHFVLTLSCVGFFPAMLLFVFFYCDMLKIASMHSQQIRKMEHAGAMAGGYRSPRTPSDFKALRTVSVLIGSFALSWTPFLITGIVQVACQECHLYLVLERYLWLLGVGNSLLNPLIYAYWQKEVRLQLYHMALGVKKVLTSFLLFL
Experiment: Measurement of GPR119 signaling (cAMP assay) in cells stably transfected with human GPR119
Format: cell-based

[1] = table column, cAMP stimulation, human GPR119, read-out: GPR119 Human EC50
[2] = stated in the example text, cAMP stimulation, human GPR119, read-out: GPR119 Human EC50
[3] = cAMP stimulation, read-out: GPR119 HumC EC50

EC50 [1] [nM] | Structure (SMILES) | further results
3.5 | CC(C)c1nc(N2CCC([C@H]3C[C@H]3CCOc3ccc(S(C)(=O)=O)cn3)CC2)no1 [Example 234] | –
0.9 | COC(C)c1noc(N2CCC([C@H]3C[C@H]3CCOc3ncc(-n4cnnn4)cc3C)CC2)n1 (some centres unmarked) [Example 227] | –
2.6 | Cc1nc2c(s1)CN(C(=O)Cc1ccc(OCC[C@@H]3C[C@@H]3C3CCN(c4nc(C(C)C)no4)CC3)cc1F)CC2 [Example 179] | –
6 | CS(=O)(=O)c1ccc(OCC[C@@H]2C[C@@H]2C2CCN(c3nc(C4CC4)no3)CC2)nc1 [Example 210] | –
0.6 | CC(C)c1noc(N2CCC([C@H]3C[C@H]3CCOc3ccc(C(=O)C4CC4)c(F)c3)CC2)n1 [Example 117] | –
9.8 | COCc1noc(N2CCC([C@H]3C[C@H]3CCOc3ccc(CC(=O)N4CCOCC4)c(F)c3)CC2)n1 [Example 202] | –
49 | CS(=O)(=O)c1ccc(OCC[C@@H]2C[C@@H]2C2CCN(c3nnc(-c4ccccc4)o3)CC2)nc1 [Example 250] | –
2.3 | COCc1noc(N2CCC([C@H]3C[C@H]3CCOc3ncc(-n4cnnn4)cc3C)CC2)n1 [Example 226] | –
1.3 | CC(C)c1noc(N2CCC([C@H]3C[C@H]3CCOc3ccc(S(C)(=O)=O)c(F)c3)CC2)n1 [Example 119] | –
1.7 | CC(C)(C)c1nc(N2CCC([C@H]3C[C@H]3CCOc3ccc(S(C)(=O)=O)cn3)CC2)no1 [Example 236] | –
0.84 | CC(C)c1noc(N2CCC([C@H]3C[C@H]3CCOc3ccc(CC(=O)N4CCOCC4)c(F)c3)CC2)n1 [Example 142] | –
11 | Cc1cc(CC(=O)N(C)C2CCS(=O)(=O)C2)cnc1OCC[C@@H]1C[C@@H]1C1CCN(c2nc(C(C)C)no2)CC1 (some centres unmarked) [Example 264] | –
4.8 | CC(C)c1noc(N2CCC([C@H]3C[C@H]3CCOc3ccc(CC(=O)N(C)C4CCOCC4)c(F)c3)CC2)n1 [Example 160] | –
6.4 | COCc1noc(N2CCC([C@H]3C[C@H]3CCOc3ccc(-c4nnn(C)n4)cc3)CC2)n1 [Example 224] | –
1.2 | CC(C)c1noc(N2CCC([C@H]3C[C@H]3CCOc3ccc(CC(=O)N4CCCC4)c(F)c3)CC2)n1 [Example 146] | –
3.5 | CC(C)c1noc(N2CCC([C@H]3C[C@H]3CCOc3ccc(CC(=O)N4CCc5nc(C(F)(F)F)sc5C4)c(F)c3)CC2)n1 [Example 184] | –
14 | Cc1cc(CC(=O)N(C)C)cnc1OCC[C@@H]1C[C@@H]1C1CCN(c2nc(C(C)C)no2)CC1 [Example 263] | –
2.6 | CC(C)c1noc(N2CCC([C@H]3C[C@H]3CCOc3ccc(CC(=O)N4CC(O)(C(F)(F)F)C4)c(F)c3)CC2)n1 [Example 186] | –

Second part, the compound before the results:

Structure (SMILES) | EC50 [1] [nM] | further results
CC(C)OC(=O)N1CCC([C@H]2C[C@H]2CCOc2cc(F)c(C(=O)NC3CC3)c(F)c2)CC1 [Example 58] | – | EC50 [2]: 3.5 nM
CC(C)OC(=O)N1CCC([C@H]2C[C@H]2CCOc2ccc(S(C)(=O)=O)c(F)c2)CC1 [Example 40] | 2.3 | –
O=C(CC1(c2ccccc2)CCC1)N1CCC([C@H]2C[C@H]2CCOc2ccc(-n3cnnn3)cc2)CC1 [Example 83] | 15 | –
CN(C)C(=O)Cc1ccc(OCC[C@@H]2C[C@@H]2C2CCN(C(=O)OC3(C)CC3)CC2)cc1F [Example 66] | – | EC50 [3]: 2.4 nM
O=C(c1c(F)cc(OCC[C@@H]2C[C@@H]2C2CCN(c3nc4ncccn4n3)CC2)cc1F)C1CC1 [Example 251] | – | EC50 [2]: 6 nM
CCOC(=O)N1CCC([C@H]2C[C@H]2CCOc2cc(F)c(C(=O)C3CC3)c(F)c2)CC1 [Example 55] | 1.1 | –
CC1(OC(=O)N2CCC([C@H]3C[C@H]3CCOc3ccc(CC(=O)N4CCC4)c(F)c3)CC2)CC1 [Example 59, 1-methylcyclopropyl 4-[(1R,2S)-2-(2-{4-[2-(azetidin-1-yl)-2-oxoethyl]-3-fluorophenoxy}ethyl)cyclopropyl]piperidine-1-carboxylate] | – | EC50 [2]: 3.3 nM
CCS(=O)(=O)c1ccc(OCC[C@@H]2C[C@@H]2C2CCN(c3nc(C(C)C)no3)CC2)cc1 [Example 29] | 7.7 | –
CC1(OC(=O)N2CCC([C@H]3C[C@H]3CCOc3ccc(CC(=O)N4CCCC4)cc3)CC2)CC1 [Example 56] | – | EC50 [2]: 4.7 nM
CC1(COC(=O)N2CCC([C@H]3C[C@H]3CCOc3ccc(S(C)(=O)=O)cn3)CC2)CC1 [Example 23] | 0.6 | –
CS(=O)(=O)c1ccc(OCC[C@@H]2C[C@@H]2C2CCN(C(=O)CC3CCCC3)CC2)nc1 [Example 88] | 4.6 | –
CC(C)c1noc(N2CCC([C@H]3C[C@H]3CCOc3cc(F)c(CC(=O)N4CC(C)(O)C4)c(F)c3)CC2)n1 [Example 112] | – | EC50 [3]: 2.4 nM
CC1(OC(=O)N2CCC([C@H]3C[C@H]3CCOc3ccc(CC(=O)N4CCC[C@@H]4C(F)(F)F)c(F)c3)CC2)CC1 [Example 68] | – | EC50 [3]: 5.1 nM
CS(=O)(=O)c1ccc(OCC[C@@H]2C[C@@H]2C2CCN(C(=O)OC3CCC3)CC2)nc1 [Example 18] | 0.4 | –
CC1(OC(=O)N2CCC([C@H]3C[C@H]3CCOc3cc(F)c(C(=O)C4CC4)c(F)c3)CC2)CC1 [Example 54] | 0.7 | –
CC(C)c1noc(N2CCC([C@H]3C[C@H]3CCOc3ccc(CC(=O)N4CCC4)cc3F)CC2)n1 [Example 101, 4-((1R,2S)-2-{2-[4-(2-azetidin-1-yl-2-oxoethyl)-2-fluorophenoxy]ethyl}cyclopropyl)-1-(3-isopropyl-1,2,4-oxadiazol-5-yl)piperidine] | – | EC50 (stated in the example text without 'GPR119', read-out: Human EC50): 5.3 nM
CC(C)(C)COC(=O)N1CCC([C@H]2C[C@H]2CCOc2ccc(-n3cnnn3)cc2)CC1 [Example 9] | 15 | –
CC(C)c1noc(N2CCC([C@H]3C[C@H]3CCOc3ccc(CC(=O)N4CC(F)C4)c(F)c3)CC2)n1 [Example 100, 4-[(1R,2S)-2-(2-{3-fluoro-4-[2-(3-fluoroazetidin-1-yl)-2-oxoethyl]phenoxy}ethyl)cyclopropyl]-1-(3-isopropyl-1,2,4-oxadiazol-5-yl)piperidine] | – | EC50 [2]: 0.4 nM
CS(=O)(=O)c1ccc(OCC[C@@H]2C[C@@H]2C2CCN(C(=O)CC3CC4C=CC3C4)CC2)nc1 (some centres unmarked) [Example 90] | 16 | –
CS(=O)(=O)c1ccc(OCC[C@@H]2C[C@@H]2C2CCN(C(=O)OCC3CCC3)CC2)nc1 [Example 22] | 5 | –
CC1(OC(=O)N2CCC([C@H]3C[C@H]3CCOc3ccc(CC(=O)N4CC(F)(F)C4)c(F)c3)CC2)CC1 [Example 65] | – | EC50 [3]: 0.49 nM
O=C(CC1CCCCC1)N1CCC([C@H]2C[C@H]2CCOc2ccc(-n3cnnn3)cc2)CC1 [Example 77, 1-(cyclohexylacetyl)-4-((1R,2S)-2-{2-[4-(1H-tetrazol-1-yl)phenoxy]ethyl}cyclopropyl)piperidine] | – | EC50 [2]: 11.8 nM
CC(C)c1noc(N2CCC([C@H]3C[C@H]3CCOc3cc(F)c(CC(=O)N4CC(O)C4)c(F)c3)CC2)n1 [Example 108, 1-[(2,6-difluoro-4-{2-[(1S,2R)-2-{1-[3-(1-methylethyl)-1,2,4-oxadiazol-5-yl]piperidin-4-yl}cyclopropyl]ethoxy}phenyl)acetyl]azetidin-3-ol] | – | EC50 [2]: 0.96 nM
